The values below come from PubChem BioAssay AID365 (MTDP, 2006).

Active and inactive are the calls of the source. How the calls were made is not given here. Where only a bound is given, the exact number is not on record here.

The target in the assay is Ribonuclease HI (Escherichia coli (strain K12)) (UniProt P0A7Y4). Description: E. coli RNase HI inhibitors, dose response, biochemical, FRET RNA/DNA duplex cleavage (AID 365). The following applies: E. coli RNase H, FRET RNA/DNA cleavage fluorescence.
Sequence of Ribonuclease HI (Escherichia coli (strain K12)) (P0A7Y4 whole entry, looked up): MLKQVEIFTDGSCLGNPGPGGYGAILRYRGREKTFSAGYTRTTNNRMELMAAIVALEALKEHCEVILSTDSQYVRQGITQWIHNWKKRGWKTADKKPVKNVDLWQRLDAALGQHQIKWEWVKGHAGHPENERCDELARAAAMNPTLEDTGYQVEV

Broadly, the IC50 is the midpoint of a concentration-inhibition curve.

With `CN1CC(O)C2=CC(=O)C(=O)C=C21` (centres undefined), the IC50 was > 100 µM (inactive).

In the case of `O=[N+]([O-])c1ccc2c(N=Nc3ccc4ccccc4c3O)c(O)cc(S(=O)(=O)O)c2c1`, the 50% inhibitory concentration (IC50) was 3 µM.

`CC1=C(C)CC(C(=O)Nc2ccc(N3C(=O)c4ccccc4C3=O)cc2)C(C(=O)O)C1` (centres undefined): the IC50 was > 100 µM (inactive).

With `Cc1cc(-c2ccc(C=C3C(=O)NC(=S)NC3=O)o2)c([N+](=O)[O-])cc1C`, the 50% inhibitory concentration (IC50) is 8.8 µM.

Take `C=C(C)[C@@H]1CCc2c(O)c(O)c(=O)cc(C)c2C1`: the IC50 result is “inactive”.

Regarding `CCCc1cc(=O)oc2c3c(c4c(c12)OC(C)(C)C=C4)O[C@H](C)[C@@H](C)[C@H]3OC`, the IC50 entry is “inactive”.

For the compound `Cc1sc(NC(=O)c2ccco2)c(C(N)=O)c1C`, the IC50 result was “inactive”.

Regarding `O=c1c(O)c(-c2cc(O)c(O)c(O)c2)oc2cc(O)cc(O)c12`, the IC50 entry is “inactive”.

As to `C[C@@H]1[C@H](O)c2c(c3c(c4c(-c5ccccc5)cc(=O)oc24)OC(C)(C)C=C3)O[C@@H]1C`, the concentration for half-maximal inhibition (IC50) was 8 µM.

On to `C=CC(C)(C)C12CC3C(=O)N/C(=C\c4cnc[nH]4)C(=O)N3C1Nc1ccccc12` (centres undefined), for which the IC50 is > 100 µM (inactive).

Regarding `O=C1C=CC(=O)C(c2cc(Cl)ccc2Cl)=C1`, the IC50 was 9.2 µM.

Consider `CC(C)c1ccc(O)c(=O)cc1`, for which the IC50 was > 100 µM (inactive).

For the compound `Cc1ccc(-c2n[nH]c(=S)n2/N=C/c2ccc(O)c(O)c2O)cc1`, the IC50 entry was “inactive”.

Consider `N#Cc1c(NC(=O)C(F)(F)F)sc2c3c(=O)c4ccccc4c(=O)c=3oc3ccccc3c12`, for which the IC50 entry is “inactive”.

With `NC(=O)c1c(N)sc2c1CCCCC2`, the IC50 was > 100 µM (inactive).

As to `Nc1cc(S(N)(=O)=O)ccc1SSc1ccc(S(N)(=O)=O)cc1N`, the IC50 was > 100 µM (inactive).

As for `COc1cc(C)cc2c(-c3c(O)cc(O)c4c3C[C@@H](C)N[C@@H]4C)cc(-c3cc(-c4c(O)cc(O)c5c4C[C@@H](C)N[C@@H]5C)c4cc(C)cc(OC)c4c3O)c(O)c12`, the 50% inhibitory concentration (IC50) was 1.2 µM.

Turning to `CC1C2C=CC1C(c1c3ccc(=O)c(O)c-3oc3c(O)c(O)ccc13)C2C(=O)O` (centres undefined), the IC50 was 1.3 µM.

For `CCC(=O)Nc1sc2c(c1C(=O)Nc1ccc(OC)cc1)CCCCC2`, the 50% inhibitory concentration (IC50) is 9 µM.

Turning to `CCN1C(=O)/C(=C/c2ccoc2)C(=O)NC1=S`, the IC50 entry is “inactive”.

As for `Cc1sc(NC(=O)C2CCCO2)c(C(N)=O)c1C` (centres undefined), the IC50 is > 100 µM (inactive).

Regarding `O=C1/C(=C/c2ccc(O)c(O)c2)SC(=S)N1c1ccc(O)cc1`, the IC50 was 8 µM.

In the case of `Cc1ccc(C(=O)NC(=S)Nc2ccc(-c3nc4ccccc4s3)cc2)cc1[N+](=O)[O-]`, the IC50 is 3.7 µM.

`CN(C)CS/C(N)=N/C(O)C(Cl)(Cl)Cl` (centres undefined): the IC50 result was “inactive”.

As to `Cc1ccc(C2COc3cc(O)c(O)cc3C2)cc1` (centres undefined), the IC50 entry is “inactive”.

Turning to `O=C(O)c1c(Br)c(Br)c(Br)c(Br)c1C1c2ccc(O)cc2Oc2cc(O)ccc21`, the 50% inhibitory concentration (IC50) is 8 µM.

Consider `CC(C)=CCC1=C(O)[C@@](O)(CC=C(C)C)C(=O)C(C(=O)CC(C)C)=C1O`, for which the IC50 entry is “inactive”.

For the compound `O=C1c2ccccc2C(=O)N1c1ccc(-c2nc3ccc(N4C(=O)c5ccccc5C4=O)cc3[nH]2)cc1`, the IC50 was 5 µM.

`O=C1NC(=S)N(c2ccccc2F)C(=O)/C1=C/c1ccc(I)o1`: the IC50 is 7.3 µM.

Consider `O=C1c2cc([N+](=O)[O-])ccc2-c2ccc3c4ccc5c6c(ccc(c7ccc1c2c73)c64)C(=O)c1cc([N+](=O)[O-])ccc1-5`, for which the IC50 is 1.8 µM.

Take `O=C1CC(=O)c2ccc3c4c(ccc1c24)C(=O)CC3=O`: the IC50 was 5.2 µM.

For `O=C1NC(=S)N(c2ccccc2F)C(=O)/C1=C/c1ccc(OCc2cccc(C(=O)O)c2)cc1`, the IC50 entry was “inactive”.

As for `CC(=O)C1=C(O)[C@@]2(O)C(=O)c3c(c(C)c4ccc(C)c(O)c4c3O)C[C@H]2[C@@H](N)C1=O`, the IC50 is 9 µM.

Consider `O=c1[nH]c2[nH]c(=S)[nH]c(=S)c2[nH]1`, for which the IC50 was > 100 µM (inactive).

Consider `O=C(O)C1CCCCC1c1c2ccc(=O)c(O)c-2oc2c(O)c(O)ccc12` (centres undefined), for which the half-maximal inhibitory concentration (IC50) is 2 µM.

As for `O=C(Nc1ccc(N2CCN(C(=O)c3ccccc3)CC2)cc1)c1ccc(-c2ccccc2)cc1`, the half-inhibitory concentration (IC50) is 3.8 µM.

On to `O=C1C(Cl)=CC(=NS(=O)(=O)c2ccccc2)C=C1Cl`, for which the IC50 result was “inactive”.

In the case of `C=CCn1c(N)c(-c2nc3ccccc3[nH]2)sc1=S`, the IC50 entry is “inactive”.

Consider `O=C(O)CCc1c2ccc(=O)c(O)c-2oc2c(O)c(O)ccc12`, for which the IC50 is 1.5 µM.

Take `Cc1ccc(C=C2C(=O)NC(=S)N(c3ccccc3Cl)C2=O)o1`: the IC50 result is “inactive”.

As to `C[C@@H]1Oc2c3c(c4c(-c5ccccc5)cc(=O)oc4c2C(=O)[C@H]1C)OC(C)(C)C=C3`, the concentration for half-maximal inhibition (IC50) is 4.2 µM.

For the compound `COc1ccc(N2C(=O)/C(=C/c3ccc(I)o3)C(=O)NC2=S)cc1`, the IC50 was 3 µM.

Regarding `CCCCCCCCCCCCCCCC(=O)OCC1OC(n2ccc(N)nc2=O)C(O)C1O` (centres undefined), the concentration for half-maximal inhibition (IC50) is 0.64 µM.

For the compound `COc1ccc2c(c1)N(C(=O)CN1C(=O)c3ccccc3C1=O)C(C)(C)c1ssc(=S)c1-2`, the IC50 entry is “inactive”.

`Cc1nn(CC(=O)Nc2sc(C)c(C)c2C(N)=O)c(C)c1[N+](=O)[O-]`: the half-maximal inhibitory concentration (IC50) is 8.2 µM.

Consider `COC([CH2][Hg][n]1cnc2c1c(=O)n(C)c(=O)n2C)CN1C(=O)c2ccccc2S1(=O)=O` (centres undefined), for which the IC50 entry was “inactive”.

Take `O=C1NC(=S)S/C1=C/c1cccc(OCc2ccc(Cl)c(Cl)c2)c1`: the 50% inhibitory concentration (IC50) is 4.4 µM.

On to `O=C(NC(=S)Nc1cc(-c2nc3ccccc3s2)ccc1Cl)c1ccc(F)cc1`, for which the half-inhibitory concentration (IC50) is 6 µM.

As for `CC1=c2c(oc3cc(O)c(Nc4c(C)cc(O)cc4O)c(C)c23)=CC(=O)C1=Nc1c(C)cc(O)cc1O`, the 50% inhibitory concentration (IC50) was 5.2 µM.

`COc1ccc(C2COc3cc(O)c(O)cc3C2)cc1` (centres undefined): the IC50 entry is “inactive”.

As to `Oc1cc(O)c2cc(O)c(-c3ccc(O)c(O)c3)[o+]c2c1`, the IC50 was 0.4 µM.

Regarding `CCCCCCCCCCCCCCCCCCOCC(O)CO` (centres undefined), the IC50 is > 100 µM (inactive).

Turning to `N#Cc1c(N)nc(SCC(=O)c2ccc(O)c(O)c2)c(C#N)c1-c1ccc(O)cc1`, the 50% inhibitory concentration (IC50) was 1.7 µM.

Consider `O=C(Oc1ccccc1)Oc1c(Cl)cc2oc(=O)sc2c1Cl`, for which the IC50 is 7.8 µM.

For `Cc1onc(-c2ccccc2)c1C(=O)Nc1sc(C)c(C)c1C(N)=O`, the IC50 entry is “inactive”.

With `Cc1ccc(C)n1-c1ccc(O)c(C(=O)O)c1`, the IC50 was > 100 µM (inactive).

Regarding `Ic1ccc2c(c1)N(c1ccccc1)c1cc(N=c3ccc4nc5ccc(I)cc5n(-c5ccccc5)c-4c3)ccc1N2`, the half-inhibitory concentration (IC50) was 4.1 µM.

On to `O=C(O)/C=C/c1c2ccc(=O)c(O)c-2oc2c(O)c(O)ccc12`, for which the half-inhibitory concentration (IC50) was 2 µM.

Consider `O=C(Cc1ccccc1Cl)c1ccc(O)c(O)c1O`, for which the IC50 result is “inactive”.

In the case of `O=C1C=CC(=O)C(c2cccc(Cl)c2)=C1`, the half-inhibitory concentration (IC50) was 8.8 µM.

With `O=C1c2ccccc2C(=O)c2c1cc(O)c(O)c2O`, the IC50 entry is “inactive”.

For `O=[N+]([O-])c1c(Cl)cccc1-c1c[nH]cc1Cl`, the IC50 is > 100 µM (inactive).

`COc1c(OC)c(O)c2c(=O)cc(-c3ccc(O)c(O)c3)oc2c1OC`: the IC50 entry is “inactive”.

On to `COc1ccc(-c2c(C#N)c(N)nc(SCC(=O)c3ccc(O)c(O)c3)c2C#N)cc1`, for which the IC50 was 0.6 µM.

With `Oc1c(Br)cc(/C=N/Nc2nnc3c(n2)[nH]c2ccccc23)c(Br)c1O`, the half-inhibitory concentration (IC50) is 4.3 µM.

Consider `C=CC1=C(C)C2=NC1=CC1=NC(=CC3=C(C)C4=C(O)C(C(=O)OC)C(=C5NC(=C2)C(C)C5CCC(=O)OC/C=C(\C)CCCC(C)CCCC(C)CCCC(C)C)C4=N3)C(CC)=C1C` (centres undefined), for which the IC50 was > 100 µM (inactive).

On to `CC(=O)/C=C/C=C/c1ccc2c(c1)OC(CO)C(c1ccc(O)c(O)c1)O2` (centres undefined), for which the IC50 result was “inactive”.

Turning to `Cc1sc2nc(-c3ccc([N+](=O)[O-])cc3)[nH]c(=O)c2c1C`, the IC50 is 1.6 µM.

Regarding `COc1ccccc1N=C(NOCc1ccc(Cl)cc1Cl)c1nonc1N`, the IC50 entry was “inactive”.

For the compound `O=S(=O)(O)c1cc(N=[N+]([O-])c2cc(S(=O)(=O)O)c3ccccc3c2)cc2ccccc12`, the concentration for half-maximal inhibition (IC50) is 0.7 µM.

On to `Cc1cc(O)c2c(c1O)C(=O)c1cccc(O)c1C2=O`, for which the IC50 was > 100 µM (inactive).

In the case of `O=C1C(Cl)=C(NC(=O)c2ccccc2)C(=O)C(Cl)=C1NC(=O)c1ccccc1`, the IC50 is > 100 µM (inactive).

`COc1cc(/C=N\c2sc3c(c2C(=O)NCc2ccccc2)CCCC3)cc(Cl)c1O`: the IC50 was 0.95 µM.

Take `Cc1cc(C)c2c(=O)[nH]c(SCC(=O)c3ccc(O)c(O)c3)nc2n1`: the IC50 was 18 µM.

Turning to `CCOc1ccc(NC(=O)c2c(NC(=O)c3ccco3)sc3c2CCCCC3)cc1`, the IC50 entry is “inactive”.

On to `O=C1Nc2ccc(I)cc2C1(O)N1CCOCC1` (centres undefined), for which the IC50 was 0.8 µM.

Regarding `CC(C)c1cccc(O)c(=O)c1`, the IC50 is > 100 µM (inactive).

`Cc1ccc(C(=O)Nc2sc(C)c(C)c2C(N)=O)cc1`: the 50% inhibitory concentration (IC50) was 2.2 µM.

In the case of `C=CCN1C(=O)/C(=C\c2ccc([N+](=O)[O-])o2)C(=O)NC1=S`, the 50% inhibitory concentration (IC50) is 72 µM.

For `Oc1cc(CN2COc3ccccc32)c(O)cc1CNC1CCCCC1`, the IC50 was > 100 µM (inactive).

Regarding `O=C(N/N=C/c1ccc(/C=N/NC(=O)c2ccc(O)c(O)c2)cc1)c1ccc(O)c(O)c1`, the 50% inhibitory concentration (IC50) was 2.1 µM.

As to `O=C(O)c1cc(-c2ccc(/C=C3/Sc4ccccc4C3=O)o2)ccc1O`, the IC50 is 1 µM.

For `CCOc1ccc(C(=O)Nc2ccc3c(c2)C(=O)c2ccccc2C3=O)cc1`, the 50% inhibitory concentration (IC50) was 4 µM.

`CCOc1ccc(N2C(=O)/C(=C/c3ccc(Br)o3)C(=O)NC2=S)cc1`: the IC50 was 0.8 µM.

For `Cc1sc(NC(=O)c2ccc(Br)o2)c(C(N)=O)c1C`, the IC50 is 4 µM.

`C[C@]12Cc3cnc(-c4ccccc4)nc3C[C@@H]1CC[C@@H]1[C@@H]2CC[C@@]2(C)[C@H]1CC[C@]2(C)O`: the IC50 entry is “inactive”.

With `COc1ccc(NC(=O)c2c(N)sc(-c3ccccc3)c2C)cc1`, the IC50 was 2 µM.

With `S=C(Nc1ccc2c(c1)Cc1ccccc1-2)Nc1ccc2c(c1)Cc1ccccc1-2`, the IC50 was 4 µM.

On to `Cc1sc(NC(=O)Cc2ccccc2)c(C(N)=O)c1C`, for which the IC50 entry is “inactive”.
